Data: article PMC8448819, “The Arabidopsis MIK2 receptor elicits immunity by sensing a conserved signature from phytocytokines and microbes” (Nature Communications, 2021)
No end group written: not given here.

Key:
[1] = tested on: PEPR1^ECD-MIK2^TK/pepr1,2 transgenic seedlings; experiment: Root growth assay, PEPR1^ECD-MIK2^TK/pepr1,2 seedlings; type: in vivo, Arabidopsis thaliana; conditions: PEPR1^ECD-MIK2^TK/pepr1,2 compared to WT
From the text: The BAK1 (AT4G33430), SERK4 (AT2G13790), BIK1 (AT2G39660), and MIK2 (AT4G08850) coding sequences (CDSs) were amplified by PCR from Col-0 cDNA using the primers containing BamHI at the 5′ end and StuI at the 3′ end. The PCR products were digested by BamHI and StuI, followed by ligation into the pHBT-FLAG or pHBT-HA vector to generate pHBT-35S::BAK1-FLAG, pHBT-35S::SERK4-FLAG, pHBT-35S::BIK1-HA, pHBT-35S::MIK2-HA, and pHBT-35S::MIK2-GFP constructs[24],[41],[62]. MIK2^ECD (residues 1–707) and BAK1^ECD (residues 1–220) were amplified by PCR from Col-0 cDNA and cloned into pFastBac-1 vector with a C-terminal 6× HIS tag[25],[62]. The fusion protein vectors carrying MIK2^ECD or BAK1^ECD were used for insect cell expression. To obtain the binary vector pCAMBIA1300-35S::RLK7, a 2907-bp RLK7 CDS was PCR-amplified from WT cDNA using gene-specific primers with KpnI and SalI at the 5′ and 3′ ends, respectively, followed by KpnI and SalI digestion and ligation into the pCAMBIA1300 vector. […]
Cold stratified seeds were surface-sterilized with 70% (v/v) ethanol for 5 min and were sown on ½MS plates with or without peptides at indicated concentrations. Ten-day-old seedlings grown on plates vertically in a growth chamber were photographed, and the root lengths of seedlings were measured using Image J (http://rsb.info.nih.gov/ij/).

[2] = tested on: mik2-1 and mik2-2 mutant seedlings; type: in vivo, Arabidopsis thaliana; conditions: in vivo
[3] = In vitro protein cleavage assay and LC-MS/MS; type: biochemical, Arabidopsis thaliana
Experimental: Recombinant HIS-SCOOP12 proteins were expressed in E. coli BL21 strain with an isopropyl β-D-1-thiogalactopyranoside (IPTG)-inducible system and purified with Ni-NTA agarose (QIAGEN, #166048536) in buffer containing 50 mM Tris-HCl pH 7.5 and 300 mM NaCl. For in vitro protein cleavage assay, 5 μg of purified HIS-SCOOP12 proteins were incubated with 10 μL protein extracts isolated from 10-day-old Arabidopsis WT seedlings or protein extraction buffer (50 mM HEPES, pH 7.4, 10 mM EDTA, and 1× protease inhibitor cocktail, Sigma) following a published protocol[36] for 5 h at room temperature with rotation. […] The processed SCOOP12 bands were cut from SDS-PAGE for LC-MS/MS analysis.
The processed SCOOP12 bands were in-gel digested following a published protocol, except that digestion was conducted with Lys-C (Promega, Madison, WI, USA). The digested peptides were desalted using micro ZipTip mini-reverse phase (Millipore). In brief, after wetting (with 50% acetonitrile) and equilibrating a ZipTip (with 0.1% formic acid), the peptides were bound to C-18 material. A subsequent washing step with 0.1% formic acid was followed by a final elution with 60% acetonitrile and 0.1% formic acid. The samples were lyophilized to dryness using a labconco speedvac (Centrivap, Labconco Inc., USA). The resulting peptides were resuspended in 0.1% formic acid for mass spectrometric analysis. The mass spectrometry data acquisition was performed on an EASY-nLC 1200 ultraperformance liquid chromatography system (Thermo Scientific Inc., San Jose, CA) connected to an Orbitrap Q-Exactive HF instrument equipped with a nano-electrospray source (Thermo Scientific Inc., San Jose, CA)[67]. The peptide samples were loaded to a C18 trapping column (75 μm i.d. × 2 cm, Acclaim PepMap® 100 particles with 3 μm size and 100 Å pores) and then eluted using a C18 analytical column (75 μm i.d. × 25 cm, 2 μm particles with 100 Å pore size). […] All MS/MS samples were analyzed using Mascot Daemon (Matrix Science, London, UK; version 2.4.0). […]

[4] = target: T1, MIK2^ECD, extracellular LRR domain of MALE DISCOVERER 1-INTERACTING RECEPTOR-LIKE KINASE 2 (Arabidopsis thaliana, UniProt Q8VZG8 44-707); experiment: SPR; conditions: both partners purified
T1 construct: also called MIK2^ECD-6×HIS
T1 sequence (looked up): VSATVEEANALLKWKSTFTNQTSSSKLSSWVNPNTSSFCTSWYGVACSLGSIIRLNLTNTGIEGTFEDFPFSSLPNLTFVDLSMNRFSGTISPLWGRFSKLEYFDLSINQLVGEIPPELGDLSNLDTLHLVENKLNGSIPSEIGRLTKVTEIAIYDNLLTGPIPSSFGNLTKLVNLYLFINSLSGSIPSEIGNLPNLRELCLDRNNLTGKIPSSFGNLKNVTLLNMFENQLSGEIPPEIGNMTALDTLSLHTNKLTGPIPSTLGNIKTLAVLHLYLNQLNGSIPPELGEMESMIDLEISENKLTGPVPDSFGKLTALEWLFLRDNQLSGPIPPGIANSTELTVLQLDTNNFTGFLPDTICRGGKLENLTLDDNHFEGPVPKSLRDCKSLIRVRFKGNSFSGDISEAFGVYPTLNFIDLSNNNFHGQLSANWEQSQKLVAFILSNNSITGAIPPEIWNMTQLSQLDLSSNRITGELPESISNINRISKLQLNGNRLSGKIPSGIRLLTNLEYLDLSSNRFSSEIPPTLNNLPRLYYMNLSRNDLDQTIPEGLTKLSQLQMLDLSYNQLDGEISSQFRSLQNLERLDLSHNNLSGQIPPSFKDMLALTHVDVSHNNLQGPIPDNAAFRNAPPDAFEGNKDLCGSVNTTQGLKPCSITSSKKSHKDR

[5] = target: T1, MIK2^ECD, extracellular LRR domain of …; experiment: ITC; MicroCal ITC200, 25 °C, 200 mM HEPES pH 7.0, 100 mM NaCl; 600 µM peptide injected into 30 µM MIK2^ECD in the cell; conditions: both partners purified

For “ATKVKAKQRGKEKVSSGRPGQHN [Pep1, plant endogenous peptide recognized by PEPR1/PEPR2]”, the “brown roots and darkened root-hypocotyl junctions” value [1] was “brown roots, and darkened root-hypocotyl junctions”, the “root growth retardation” value [1] was “severe root growth retardation” and the “response of mik2-1 to Pep1” value [2] was “responded to the Pep1 treatment similarly to WT plants”.

In the case of “HIS-SCOOP12: recombinant HIS-SCOOP12 proteins expressed in E. coli (LMGSGASGPVRSSQSSQAGGRFNDADPIAIDYGKY; also: His tag (not in given chain); UniProt B3H7I1 44-78, looked up)”, the “proteolytic processing by Arabidopsis protein extracts” value ([3]; 5 μg HIS-SCOOP12, seedling extract, 5 h, room temperature, pH 7.4) is reported as “proteolytically processed upon incubation with Arabidopsis protein extracts”, the cleavage site ([3]; Nano-LC-MS/MS) is reported as “cleaved after arginine 43 (R^43)” and the “identified SCOOP12 fragment” value ([3]; Nano-LC-MS/MS, in-gel Lys-C digestion) is reported as “from leucine 44 (L^44) to lysine 78 (Y^78)”.

B1: SCOOP12^SS/AA peptide (peptide)
chain: PVRSAQASQAGGR
modifications: Synthetic peptide. Exact limits are in Supplementary Data 4 (not shown); same conventional 13-mer as m1, with both SxS-motif serines changed to alanine.
B1 showed a Kd [4] of 3.48 mM.

B2: SCOOP12 peptide (SERINE-RICH ENDOGENOUS PEPTIDE 12) (peptide)
chain: PVRSSQSSQAGGR
modifications: Synthetic peptide, unlabelled in ITC/SPR; an N-terminal TAMRA version was used for in vivo binding. Exact limits are in Supplementary Data 4 (not shown). Limits taken as the commonly used 13-mer …
In the case of B2, the Kd [4] is reported as 0.00178 mM, the Kd [5] is reported as 3.18 µM and the “stoichiometry N” value [5] is reported as about 1.
